From PubChem BioAssay (NCI) come the findings set out here.

The structures appear in SMILES notation. “And” between values parts separate entries of the source, which are not always exact repeats. Equal entries are not always repeated.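 Protocol summary: plate cells (96-well), add compound at 5 concentrations, incubate 48 h, interpolate endpoints linearly. Definition used: TGI = concentration required for complete inhibition of growth.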

Some test systems named below: U251 CNS; MCF7 breast; NCI-H226 lung; M19-MEL melanoma; HS 578T breast; M14 melanoma; DMS 114 small cell lung; A549 NSCLC; DU-145 prostate; DLD-1 colon; MOLT-4 leukemia.
What all share (test): inhibition of tumour cell growth, NCI panel, 48 h

Take `Cn1c2ccccc2n2c3nc4ccccc4nc3c(C#N)c12`: the TGI with U251 CNS, in the assay with MCF7 breast, in the assay on NCI-H226 lung, in the assay with M19-MEL melanoma, in the assay on HS 578T breast and in the assay on M14 melanoma was greater than 100 µM in each case. For the same compound, the TGI with DMS 114 small cell lung, with A549 NSCLC, in the assay with DU-145 prostate, with DLD-1 colon and in the assay on MOLT-4 leukemia was greater than 100 µM throughout.

For `CC(NCCS(=O)(=O)O)C(=O)O` (configuration not stated), the TGI in the assay on U251 CNS, in the assay with MCF7 breast, with NCI-H226 lung, in the assay on M19-MEL melanoma, in the assay with DMS 114 small cell lung and with A549 NSCLC was greater than 100 µM throughout. Also, the TGI in the assay on DLD-1 colon and in the assay with MOLT-4 leukemia was greater than 100 µM each time.

`Nc1nc(N)c2ncn(CC(CO)CC(c3ccccc3)P(=O)(O)O)c2n1` (configuration not stated): the TGI in the assay on U251 CNS is greater than 100 µM; in the assay with NCI-H226 lung it was greater than 100 µM; in the assay on M19-MEL melanoma it was greater than 100 µM; in the assay with M14 melanoma, 10.4 µM; in the assay with DMS 114 small cell lung it was greater than 100 µM; with A549 NSCLC, greater than 100 µM. For the same compound, the TGI in the assay on DLD-1 colon and in the assay on MOLT-4 leukemia was greater than 100 µM throughout.

As for `Cc1c2cc[n+](C)cc2c(C)c2c1[nH]c1ccccc12`, the TGI with U251 CNS is 1.94 µM and 2.74 µM; with MCF7 breast it was 21.9 µM and 39.5 µM; in the assay with NCI-H226 lung, 1.7 µM and 1.61 µM; in the assay with M19-MEL melanoma, 3.34 µM and 2.32 µM; in the assay on M14 melanoma it was greater than 100 µM; with DMS 114 small cell lung, 1.88 µM and 1.99 µM. The TGI is 5.55 µM and 8.83 µM in the assay on A549 NSCLC; 24.9 µM in the assay on DU-145 prostate; > 100 µM and 76.9 µM in the assay with DLD-1 colon; 56.6 µM and 30.2 µM with MOLT-4 leukemia.

In the case of `S=C1CC(c2ccc(Cl)cc2)Sc2ccccc2N1` (configuration not stated), the TGI in the assay with U251 CNS was greater than 100 µM; with MCF7 breast, greater than 100 µM; in the assay on NCI-H226 lung, greater than 100 µM; in the assay on HS 578T breast, 40 µM; in the assay with M14 melanoma, greater than 100 µM; in the assay on A549 NSCLC, greater than 100 µM. The TGI in the assay on DU-145 prostate was greater than 100 µM; in the assay on MOLT-4 leukemia, greater than 10 µM.

Regarding `COc1cccc(/C=C/C2=NN(c3cccc(S(=O)(=O)O)c3)C3(C2)SCC(=O)N3c2nc3ccccc3s2)c1` (configuration not stated), the TGI in the assay with U251 CNS, in the assay on MCF7 breast, in the assay with NCI-H226 lung, in the assay on HS 578T breast, in the assay with M14 melanoma and in the assay on A549 NSCLC was greater than 100 µM throughout. The TGI in the assay on DU-145 prostate was found to be 93.1 µM; in the assay on MOLT-4 leukemia, 81.3 µM.

`COc1cc2[nH]c(-c3ccccc3)cc(=O)c2cc1OC`: the TGI with U251 CNS is greater than 100 µM; in the assay on MCF7 breast it was greater than 28.8 µM; with NCI-H226 lung, 53.6 µM; in the assay on HS 578T breast, greater than 100 µM; with M14 melanoma, greater than 76.2 µM; with A549 NSCLC, greater than 69.8 µM. The TGI in the assay on DU-145 prostate and in the assay on MOLT-4 leukemia was greater than 100 µM each time.

As to `COC(=O)/C=C1/OC(c2ccccc2)=C(Cl)C1=O`, the TGI is 27.1 µM with U251 CNS; 37.5 µM in the assay with MCF7 breast; greater than 84.6 µM with NCI-H226 lung; 66.8 µM in the assay with HS 578T breast; 35.2 µM with M14 melanoma; 69.4 µM in the assay with A549 NSCLC. The TGI in the assay with DU-145 prostate was greater than 76.2 µM; in the assay with MOLT-4 leukemia, 18.1 µM.

With `COc1ccc2nc3c([N+](=O)[O-])ccc4c3c(c2c1)NCCN4C`, the TGI in the assay with U251 CNS was 13.4 µM; with MCF7 breast, 8.75 µM; with NCI-H226 lung it was 3.59 µM; with HS 578T breast, 5.21 µM; in the assay on M14 melanoma it was 2.8 µM; with A549 NSCLC, 2.57 µM. Further, the TGI stood at 6.92 µM in the assay on DU-145 prostate and 27 µM in the assay with MOLT-4 leukemia.
